Test results as given in PMC8343220, “The selectivity of α‐adrenoceptor agonists for the human α1A, α1B, and α1D‐adrenoceptors” (Pharmacology Research & Perspectives, 2021).
Read-outs that look alike come from different tables or passages of the source. Marks after values point to notes of the source that are not given here.

Columns and labels:
human α1B‐adrenoceptor [1] = target: T1, human α1B‐adrenoceptor (Homo sapiens, UniProt P35368); assay: ^3H‐prazosin whole‐cell radioligand binding, CHO‐α1B cells
T1 construct: expressed in transfected cells; host or cells: CHO-K1
T1 sequence (P35368 1-520): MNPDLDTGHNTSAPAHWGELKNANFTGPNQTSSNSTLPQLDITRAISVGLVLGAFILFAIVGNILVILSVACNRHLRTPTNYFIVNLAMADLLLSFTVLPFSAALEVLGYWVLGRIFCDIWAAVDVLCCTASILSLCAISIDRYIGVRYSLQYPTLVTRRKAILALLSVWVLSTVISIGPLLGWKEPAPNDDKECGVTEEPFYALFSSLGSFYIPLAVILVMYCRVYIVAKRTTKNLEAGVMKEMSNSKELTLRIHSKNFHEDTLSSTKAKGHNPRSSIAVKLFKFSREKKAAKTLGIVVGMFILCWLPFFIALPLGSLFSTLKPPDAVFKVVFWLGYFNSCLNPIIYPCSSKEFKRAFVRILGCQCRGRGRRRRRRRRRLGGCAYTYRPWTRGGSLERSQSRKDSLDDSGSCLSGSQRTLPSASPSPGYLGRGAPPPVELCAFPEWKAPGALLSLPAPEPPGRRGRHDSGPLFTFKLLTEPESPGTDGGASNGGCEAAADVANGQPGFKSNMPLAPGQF

[2] = target: T2, human α1D‐adrenoceptor (full length) (Homo sapiens, UniProt P25100); assay: ^3H‐prazosin whole‐cell radioligand binding, CHO‐α1D cells
T2 construct: human α1D‐adrenoceptor (full length) were used; expressed in transfected cells; host or cells: CHO-K1
T2 sequence (P25100 1-572): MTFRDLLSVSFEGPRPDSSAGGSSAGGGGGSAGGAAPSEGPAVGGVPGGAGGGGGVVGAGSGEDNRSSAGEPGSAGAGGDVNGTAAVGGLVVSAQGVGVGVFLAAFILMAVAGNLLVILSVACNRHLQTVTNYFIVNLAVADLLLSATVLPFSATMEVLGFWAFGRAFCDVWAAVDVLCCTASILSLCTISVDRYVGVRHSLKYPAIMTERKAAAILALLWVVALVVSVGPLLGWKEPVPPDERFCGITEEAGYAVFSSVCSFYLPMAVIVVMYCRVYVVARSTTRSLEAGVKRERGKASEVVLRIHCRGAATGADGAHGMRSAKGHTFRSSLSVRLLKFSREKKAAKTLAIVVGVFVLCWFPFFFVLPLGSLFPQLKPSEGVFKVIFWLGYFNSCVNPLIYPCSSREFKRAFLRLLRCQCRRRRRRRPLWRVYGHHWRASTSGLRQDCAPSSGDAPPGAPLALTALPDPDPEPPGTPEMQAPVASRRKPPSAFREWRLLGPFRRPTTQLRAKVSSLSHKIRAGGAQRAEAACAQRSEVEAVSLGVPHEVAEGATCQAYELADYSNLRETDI

human α1B‐adrenoceptor [3] = target: T1, human α1B‐adrenoceptor; assay: Intracellular free calcium mobilization, CHO‐α1B cells; format: cell-based
human α1A‐adrenoceptor [4] = target: T3, human α1A‐adrenoceptor (Homo sapiens, UniProt P35348); assay: ^3H‐prazosin whole‐cell radioligand binding, CHO‐α1A cells
T3 construct: expressed in transfected cells; host or cells: CHO-K1
T3 sequence (P35348 1-466): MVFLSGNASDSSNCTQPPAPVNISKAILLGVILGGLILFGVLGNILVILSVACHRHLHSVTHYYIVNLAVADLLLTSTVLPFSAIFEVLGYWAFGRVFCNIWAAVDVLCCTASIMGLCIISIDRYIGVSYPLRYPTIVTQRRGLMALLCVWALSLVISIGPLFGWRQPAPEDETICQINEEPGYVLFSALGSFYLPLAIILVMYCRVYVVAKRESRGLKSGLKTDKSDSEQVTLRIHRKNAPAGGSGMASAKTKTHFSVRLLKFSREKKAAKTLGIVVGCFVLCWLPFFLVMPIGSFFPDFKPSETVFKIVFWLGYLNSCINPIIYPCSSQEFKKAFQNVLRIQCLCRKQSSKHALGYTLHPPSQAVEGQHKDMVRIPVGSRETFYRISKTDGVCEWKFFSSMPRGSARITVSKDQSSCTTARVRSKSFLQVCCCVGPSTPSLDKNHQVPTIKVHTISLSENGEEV

[5] = target: T2, human α1D‐adrenoceptor (full length); assay: Intracellular free calcium mobilization, CHO‐α1D cells; format: cell-based; settings: for Intracellular calcium release % ionomycin: maximal response as % of 10 µM ionomycin
[6] = tested on: parental CHO cell line without any transfected receptors; assay: ERK1/2‐phosphorylation, parent CHO cells without transfected receptors; format: cell-based, Chinese hamster; settings: for Emax: read-out: ERK1/2-phosphorylation % PDBu; for EC50: read-out: ERK1/2-phosphorylation Log EC50 (converted); for ERK1/2‐phosphorylation response in parent CHO cells: untransfected cells
human α1A‐adrenoceptor [7] = target: T3, human α1A‐adrenoceptor; assay: Intracellular free calcium mobilization, CHO‐α1A cells; format: cell-based
[8] = target: T2, human α1D‐adrenoceptor (full length); assay: ERK1/2‐phosphorylation (Surefire Alphascreen), CHO‐α1D cells; format: cell-based
[9] = tested on: parental CHO cell line without any transfected receptors; assay: Intracellular calcium mobilization, parent CHO cells without transfected receptors; format: cell-based, Chinese hamster; settings: Cricetulus griseus, read-out: Intracellular calcium release % ionomycin
[10] = tested on: parental CHO cell line without any transfected receptors; assay: Forskolin‐stimulated cAMP accumulation, parent CHO cells without transfected receptors; format: cell-based, Chinese hamster; settings: for cAMP accumulation (in presence of forskolin) % forskolin-stim cAMP at 100μM: response at 100μM only, EC50 not obtainable, % of forskolin-stimulated cAMP
human α1A‐adrenoceptor [11] = target: T3, human α1A‐adrenoceptor; assay: ^3H‐cAMP accumulation, CHO‐α1A cells; format: cell-based; settings: CHO‐α1A cells; % of 10 µM forskolin response
human α1A‐adrenoceptor [12] = target: T3, human α1A‐adrenoceptor; assay: ERK1/2‐phosphorylation (Surefire Alphascreen), CHO‐α1A cells; format: cell-based
[13] = target: T2, human α1D‐adrenoceptor (full length); assay: ^3H‐cAMP accumulation in the presence of 10 μM forskolin, CHO‐α1D cells; format: cell-based; settings: for Effect on cAMP accumulation in the presence of forskolin, CHO‐α1D cells: not α1‐mediated
human α1B‐adrenoceptor [14] = target: T1, human α1B‐adrenoceptor; assay: ERK1/2‐phosphorylation (Surefire Alphascreen), CHO‐α1B cells; format: cell-based
human α1B‐adrenoceptor [15] = target: T1, human α1B‐adrenoceptor; assay: ^3H‐cAMP accumulation, CHO‐α1B cells; format: cell-based; settings: CHO‐α1B cells; % forskolin maximum response
[16] = 3H‐prazosin binding Log KD, CHO‐α1D cells, whole‐cell binding (from Table 1), log values given negative
[17] = CHO‐α1D cells, given as log KD (negative), mean ± SEM, 'early plateau' = specific binding not fully inhibited
[18] = CHO‐α1D cells, log values given negative
[19] = CHO cells without transfected receptors, maximal response as % of PDBu (10μM) response, mean ± s.e.m.
[20] = CHO‐α1D cells, maximal response as % of PDBu
[21] = CHO cells without transfected receptors, response at maximum concentration used (c2), as % of ionomycin (10μM) response, mean ± s.e.m.
[22] = Cricetulus griseus, CHO cells without transfected receptors, maximal response as % of PDBu (10μM) response, mean ± s.e.m.
[23] = CHO‐α1A cells, maximal response as % of 10 µM ionomycin
[24] = CHO‐α1A cells, % of 10 µM PDBu, ^a bi‐phasic: initial stimulatory part
[25] = CHO cells without transfected receptors

SMILES	Affinity selectivity ratio α1B vs α1D [2] [fold]	Kd [2, 16] [nM]	Kd [2, 17] [nM]	Affinity selectivity ratio α1A vs α1B (human α1A‐adrenoceptor [4]) [fold]	Kd (human α1A‐adrenoceptor [4]) [nM]	Intracellular calcium release % ionomycin ([5]; CHO‐α1D cells)	ERK1/2-phosphorylation Log EC50 [6]	ERK1/2-phosphorylation % PDBu [6, 19]	ERK1/2‐phosphorylation % PDBu [8, 20]	Emax [9, 21] [%]	cAMP accumulation % forskolin (human α1A‐adrenoceptor [11]) [%]	Emax [6, 22] [%]	ERK1/2‐phosphorylation response in parent CHO cells [6]	Intracellular calcium release % ionomycin (human α1A‐adrenoceptor [7]; [23]) [%]	ERK1/2‐phosphorylation % PDBu (human α1A‐adrenoceptor [12]; [24]) [%]	ERK1/2‐phosphorylation % PDBu (human α1B‐adrenoceptor [14]) [%]	Intracellular calcium release % Ionomycin at 100 µM [5] [%]	Intracellular calcium release % ionomycin (human α1A‐adrenoceptor [7]) [%]	ERK1/2‐phosphorylation % PDBu (human α1A‐adrenoceptor [12]) [%]	ERK1/2‐phosphorylation % PDBu at 100 µM [8]	also measured
OCc1cc(C(O)CNCCCCCCOCCCCc2ccccc2)ccc1O (centres unmarked) [Salmeterol]	4.4	1700	1700	9.5	776	No response	No response	No response	No response	3.2 ± 1.4											Kd (human α1B‐adrenoceptor [1]; CHO‐α1B cells, given as log KD (negative), mean ± SEM): 7410 nM; Kd (human α1B‐adrenoceptor [1]; Log KD, ^3H‐prazosin binding, CHO‐α1B cells, whole‐cell binding (from Table 1), given as log KD (negative numbers)): 7410 nM; Intracellular calcium release % ionomycin at 10 µM (human α1B‐adrenoceptor [3]; CHO‐α1B cells, response at 10 µM ligand (no EC50 given), % of ionomycin response): 15.2 ± 4.0%; Intracellular calcium release Log EC50 [5, 18]: No response; Intracellular calcium release % ionomycin at 10 µM (human α1A‐adrenoceptor [7]): 28.2 ± 2.7%; ERK1/2‐phosphorylation Log EC50 [8, 18]: No response
Cc1cc(C(C)(C)C)c(O)c(C)c1CC1=NCCN1 [Oxymethazoline]						7.6 ± 1.0%			48.6 ± 5.4%	3.1 ± 0.9	43.9 ± 5.2	46.7 ± 6	stimulated ERK1/2‐phosphorylation responses	54.5 ± 2.5	92.8 ± 2.7						% inhibition of forskolin-stimulated cAMP ([10]; CHO cells without transfected receptors, footnote *: % inhibition): 18.1 ± 2.2%; IC50 ([10]; Cricetulus griseus, CHO cells without transfected receptors, footnote *: log IC50, read-out: log IC50, decrease in forskolin-stimulated cAMP accumulation (converted)): 19.5 nM; Effect on cAMP accumulation in the presence of forskolin, parent cells ([10]; untransfected cells): decrease in cAMP accumulation; EC50 ([6]; Cricetulus griseus, CHO cells without transfected receptors, mean ± s.e.m.): 11 nM; % inhibition of forskolin‐stimulated cAMP ([13]; CHO‐α1D cells, decrease in forskolin‐stimulated cAMP accumulation (footnote b)): *28.7 ± 2.9%; Effect on cAMP accumulation in the presence of forskolin, CHO‐α1D cells ([13]; listed as Oxymetazoline): decrease in cAMP accumulation; Effect on cAMP accumulation in the presence of forskolin, CHO‐α1D cells ([13]; listed as oxymetazoline): inhibitory cAMP response
CC(CCc1ccccc1)NCC(O)c1ccc(O)c(C(N)=O)c1 (centres unmarked) [Labetolol]										10.3 ± 3.1	4.5 ± 0.6	25.9 ± 3.4	stimulated ERK1/2‐phosphorylation responses			22.9 ± 6.3	8.1 ± 1.6	36.9 ± 3.7	71.3 ± 5.2	36.5 ± 5.2 ^a %	cAMP accumulation (in presence of forskolin) Log EC50 [10]: No response; Intracellular calcium release % Ionomycin at 100 µM (human α1B‐adrenoceptor [3]): 2.5 ± 1.2%; EC50 ([6]; Cricetulus griseus, CHO): 2400 nM; cAMP accumulation % forskolin (human α1B‐adrenoceptor [15]): No response
Cc1cccc(C)c1N=C1NCCCS1 [Xylazine]	21.9			18.2	33100		No response									26.4 ± 5.8	3.8 ± 0.8	45.1 ± 2.2	78.6 ± 5.8		EC50 (human α1B‐adrenoceptor [14]): 6760 nM; Kd (human α1B‐adrenoceptor [1]): 603000 nM; Affinity selectivity ratio α1A vs α1D [2]: 1.2 fold; Kd [2]: 27500 nM; EC50 (human α1B‐adrenoceptor [3]): 4680 nM; Intracellular calcium release % ionomycin (human α1B‐adrenoceptor [3]): 30.4 ± 3.9%; Log efficacy ratio KD /EC50 (human α1B‐adrenoceptor [3]): 2.11; ERK1/2-phosphorylation % PDBu [6]: No response; EC50 (human α1A‐adrenoceptor [7]): 1200 nM; Log efficacy ratio KD /EC50 (human α1A‐adrenoceptor [7]): 1.44; EC50 (human α1A‐adrenoceptor [12]): 2040 nM; ERK1/2‐phosphorylation % PDBu [8]: No response; ERK1/2‐phosphorylation Log EC50 [8]: No response; Emax ([9]; CHO): 2.3 ± 0.3%
Cc1cccc(Cc2c[nH]cn2)c1C [Detomidine]		977	977							4.3 ± 1.7	17.3 ± 1.9					31.5 ± 5.4			84.2 ± 3.8	12.3 ± 2.4%	cAMP accumulation (in presence of forskolin) % forskolin-stim cAMP at 100μM [10, 25]: 83.2 ± 4.9%; Emax at 100 µM ([6]; Cricetulus griseus, CHO, read-out: ERK1/2-phosphorylation % PDBu at 100μM): 6.1 ± 4%; cAMP accumulation % forskolin (human α1B‐adrenoceptor [15]): 2.8 ± 0.6%
O=C1CC2(CCCC2)CC(=O)N1CCCCN1CCN(c2ncccn2)CC1 [Buspirone]						9.0 ± 1.5%		No response	11.3 ± 2.5%	3.1 ± 2.3	3.3 ± 0.06			46.7 ± 3.0	47.3 ± 10.6						cAMP accumulation (in presence of forskolin) % forskolin-stim cAMP at 100μM [10, 25]: 113.6 ± 5.2%; ERK1/2‐phosphorylation % PDBu (human α1B‐adrenoceptor [14]; CHO‐α1B cells, maximal response as % PDBu response, for bi‐phasic responses the initial stimulatory part): 47.2 ± 8.6%; Intracellular calcium release % ionomycin (human α1B‐adrenoceptor [3]; CHO‐α1B cells, maximal response as % of 10 µM ionomycin response): 47.8 ± 3.2%
